Data as given in US4089961A, “Antipsychotically useful quinolizidylidene derivatives of xanthenes, thioxanthenes and dibenzoxepins” (priority 1976, dated 1978).
Like-named read-outs stand apart in the source and are kept apart here.

Experiments:
[1] = test system: striatal dopamine receptors; conditions: rat, in vivo, ip
Source text: There is evidence that antipsychotic drugs cause EPS by interfering with neurotransmission in a nigrostriatal dopaminergic pathway. It is throught that they block dopamine receptors in the neostriatum. Therefore, the ability of a drug to block striatal dopamine receptors is a measure of its EPS liability.
(§1) To assess the potency of drugs in blocking striatal dopamine receptors a procedure was used which was developed by Ungerstedt [Ungerstedt and Arbuthnott, Brain Res. 24 485 (1970); Ungerstedt, Acta physiol. scand., Suppl. 367, 49 (1971)] using rats with unilateral lesions of the substantia nigra induced by injection of 6-hydroxydopamine. This treatment causes degeneration of the nigrostriatal dopaminergic pathway accompanied by a marked decrease in the dopamine content of the neostriatum on the side of the lesion. Animals with this lesion develop postural and motor asymmetries which are altered by drugs which effect dopaminergic activity. Amphetamine, which releases dopamine and norepinephrine from catecholaminergic neurons, causes these rats to rotate unidirectionally toward the side of the lesion. Since there is a much larger amount of dopamine to be released by amphetamine from the intact nigrostriatal neurons on the non-lesioned side than from those remaining on the lesioned side, the rotational behavior is apparently due to a preponderance of activation of striatal dopamine receptors on the intact side. The ability of a drug to antagonize the rotational behavior is therefore a measure of its ability to block striatal dopamine receptors and is indicative of its potential to produce EPS.
(§2) To predict the potential ability of a drug to cause EPS, the ratio of its ED50 (i.p.) for antagonism of amphetamine-induced rotation to its ED50 (i.p.) for blockage of shock avoidance acquisition in the rat, a procedure for assessing antipsychotic activity, (R/A ratio) is calculated.

[2] = test system: shock avoidance acquisition; assay: blockade of shock avoidance acquisition in the rat (procedure for assessing antipsychotic activity); format: in vivo; conditions: i.p.
Procedure: as §2

[3] = test system: striatal dopamine receptors; assay: antagonism of amphetamine-induced rotation in rats with unilateral 6-hydroxydopamine lesions of the substantia nigra; format: in vivo, rat; conditions: for ED50 for antagonism of amphetamine-induced rotation: rat; for ED50: Rattus norvegicus, ip, read-out: Antagonism of Amphetamine-induced Rotation Rats ED50
Source text: as §1, §2

[4] = clinically established antipsychotics; cited from earlier work

## Clc1ccc2c(c1)C(=C1CCC3CCCCN3C1)c1ccccc1S2 (stereo not drawn) [3-(2-chlorothioxanthen-9-ylidene)quinolizidine, isomer havin]
[1]
  R/A ratio: 4.8
[2]
  ED50 for blockade of shock avoidance acquisition: 1.7 mg/kg
[3]; i.p.
  ED50 for antagonism of amphetamine-induced rotation: 8.2 mg/kg

## Clc1ccc2c(c1)C(=C1CCC3CCCCN3C1)c1ccccc1S2 (stereo not drawn) [3-(2-chlorothioxanthen-9-ylidene)quinolizidine, other isomer]
[1]
  R/A ratio: 3.3
[2]
  ED50 for blockade of shock avoidance acquisition: 0.7 mg/kg
[3]; i.p.
  ED50 for antagonism of amphetamine-induced rotation: 2.3 mg/kg

## CN(C)CCCN1c2ccccc2Sc2ccc(Cl)cc21 [Chlorpromazine]
[3]
  ED50: 2 mg/kg

## CN1CCN(C2=Nc3cc(Cl)ccc3Nc3ccccc32)CC1 [Clozapine, clozapine]
[4]
  propensity to cause EPS relative to chlorpromazine: known to produce EPS to a lesser extent than chlorpromazine
[3]; rats, i.p., Table I, R
  ED50: 25.4 mg/kg

## O=C(CCCN1CCC(O)(c2ccc(Cl)cc2)CC1)c1ccc(F)cc1 [Haloperidol, haloperidol]
[4]
  propensity to cause EPS relative to chlorpromazine: considerably greater propensity to cause EPS than chlorpromazine
[1]
  R/A ratio: 0.3-0.5
[3]; rats, i.p., Table I, R
  ED50: 0.05 mg/kg

## O=c1[nH]c2ccccc2n1C1CCN(CCCC(c2ccc(F)cc2)c2ccc(F)cc2)CC1 [Pimozide, pimozide]
[4]
  propensity to cause EPS relative to chlorpromazine: considerably greater propensity to cause EPS than chlorpromazine
[3]
  ED50: 0.08 mg/kg

## CSc1ccc2c(c1)N(CCC1CCCCN1C)c1ccccc1S2 (centres unmarked) [Thioridazine, thioridazine]
[4]
  propensity to cause EPS relative to chlorpromazine: known to produce EPS to a lesser extent than chlorpromazine
[1]
  R/A ratio: 2.7
[3]; rats, i.p., Table I, R
  ED50: 13.7 mg/kg

## CN1CCN(CCCN2c3ccccc3Sc3ccc(C(F)(F)F)cc32)CC1 [Trifluoperazine, trifluoperazine]
[4]
  propensity to cause EPS relative to chlorpromazine: considerably greater propensity to cause EPS than chlorpromazine
[1]
  R/A ratio: 0.3-0.5
[3]; rats, i.p., Table I, R
  ED50: 0.12 mg/kg
